Laboratory results reported in a melting point compilation (Tetko et al.).

| Compound | melting point |
| --- | --- |
| Nc1sc2c(c1C(=O)c1cccc(Cl)c1)CCC2 | 129 to 131 °C |
| CC(O)c1nc2ncc(Br)cc2[nH]1 (configuration not stated) | 218 to 220 °C |
| Nc1cc(Br)cc(Cl)c1O | 79 to 81 °C |
| O=C(O)C1CCCN1C(=O)c1ccc(Cl)s1 (configuration not stated) | 127 to 129 °C |
| CCS(=O)(=O)c1ccc(C(=O)O)c(N)c1 | 184 to 186 °C |
| O=C(CCl)N1CC=C(c2ccccc2)CC1 | 86 to 88 °C |
| COc1cccc(C=O)c1OC(F)F | 30 to 32 °C |
| Clc1ccc(-n2cccn2)nn1 | 142 to 144 °C |
| CC(=O)N(C)CCCC(=O)O | 98 to 100 °C |
| Cc1[nH]oc(=N)c1Br | 67 to 69 °C |
| CCc1c(O)nc(S)n(-c2cccc(OC)c2)c1=O | 141 to 143 °C |
| COc1ccc2cc(N)ccc2n1 | 101 to 103 °C |
| Cc1ccc(S(=O)(=O)N2CCCC(C(=O)O)C2)cc1 (configuration not stated) | 149 to 151 °C |
| CN1CCN(c2ccc(N)cn2)CC1 | 109 to 111 °C |
| N=c1ccc2sc(N)nc2[nH]1 | 193 to 195 °C |
| CON(C)C(=O)Cc1ccc(Cl)cc1 | 45 to 47 °C |
| Nc1nc2ncccn2n1 | 185 to 187 °C |
| O=C(O)c1cc([N+](=O)[O-])cc2c1OCCO2 | 248 to 250 °C |
| Cn1cc(C=O)c(-c2cccs2)n1 | 64 to 66 °C |
| O=C(O)CCSc1ccc2c(c1)OCCO2 | 87 to 89 °C |
| O=C(O)c1ccc(C(F)(F)C(F)(F)F)cc1 | 152 to 154 °C |
| O=C(O)c1cc(F)ccc1-n1ccnc1 | 229 to 231 °C |
| FC(F)Oc1ccc(CNC23CC4CC(CC(C4)C2)C3)cc1 | 283 to 285 °C |
| CC(C)C(=O)N(C)Cc1ccc(C(=O)O)cc1 | 139 to 141 °C |
| CCCNC(=O)c1cccnc1Cl | 63 to 65 °C |
| Nc1nc2cc(-c3ccccc3)cc(Cl)c2o1 | 237 to 239 °C |

| Compound | melting point |
| --- | --- |
| CCOC(=O)c1csc(-c2ccccn2)n1 | 67 to 69 °C |
| CS(=O)(=O)c1nnc(N)[nH]1 | 243 to 245 °C |
| CCOC(=O)c1nc(NCCc2ccccc2)sc1C | 109 to 111 °C |
| CCOC=C1C(=O)N(c2ccc(Cl)cn2)C(=O)c2ccccc21 | 200 to 202 °C |
| O=C(O)c1csc(-c2cc3ccccc3o2)n1 | 242 to 244 °C |
| CCOC(=O)c1[nH]c(C)c(C(=O)O)c1C | 103 to 105 °C |
| O=C(O)CCCCc1cccc(O)c1 | 115 to 117 °C |
| CCOC(=O)c1csc(NC)n1 | 115 to 117 °C |
| COC(=O)c1ccc(F)c(CBr)c1 | 50 to 52 °C |
| NC(=O)C(F)(F)c1ccccc1 | 116 to 118 °C |
| COc1cccc(N2C(=O)NC(=O)C2=O)c1 | 196 to 198 °C |
| O=C(O)c1cc(=O)n(Cc2ccccc2)c2ccccc12 | 215 to 217 °C |
| COc1ccc(Cl)c(S(N)(=O)=O)c1 | 129 to 131 °C |
| NC(=O)C1(O)Cc2ccccc2C1 | 186 to 188 °C |
| NNc1cc(C(F)(F)F)nc2ncnn12 | 230 to 232 °C |
| Cn1c(=O)[nH]c(=O)c2cc(S(N)(=O)=O)cnc21 | 311 to 313 °C |
| O=C(O)c1ccc2[nH]nnc2n1 | 277 to 279 °C |
| c1cnn(CC2CCNCC2)c1 | 45 to 47 °C |
| O=c1[nH]nc2cncc(Cl)n12 | 169 to 171 °C |
| N#Cc1ccc(S(=O)(=O)NCC2CCCO2)cc1 (configuration not stated) | 123 to 125 °C |
| CC(=O)Nc1ccc(S(=O)(=O)N(C)CC(=O)O)cc1 | 225 to 227 °C |
| O=c1c2ccccc2nc(S)n1-c1nnc[nH]1 | 234 to 236 °C |
| O=C1C2CC1CN(Cc1ccccc1)C2 | 64 to 66 °C |
| Cc1ccc(C)c(S(=O)(=O)NN)c1 | 75 to 77 °C |
| CN(C)C(=O)c1cc(N)ccc1F | 104 to 106 °C |
| CCc1ccsc1C(N)=O | 146 to 148 °C |

| Compound | melting point |
| --- | --- |
| O=C1Cc2cc(S(=O)(=O)Cl)c(Cl)cc2N1 | 185 to 187 °C |
| O=S(=O)(Cl)c1cc2c(cc1Cl)OCCO2 | 139 to 141 °C |
| O=C(O)C=Cc1ccc(OC(F)F)cc1 | 182 to 184 °C |
| O=Cc1ccc(Oc2ccc([N+](=O)[O-])cc2Cl)c(F)c1 | 81 to 83 °C |
| COc1ccc(S(=O)(=O)Cl)cc1CC(=O)O | 149 to 151 °C |
| O=C(O)C1(NS(=O)(=O)c2cccc(F)c2)CCCCC1 | 213 to 215 °C |
| NNC(=O)Cc1cc(=O)[nH]c(S)n1 | 242 to 244 °C |
| O=C(O)CS(=O)(=O)CCCc1ccccc1 | 97 to 99 °C |
| ClCc1ccc(-n2cccn2)cc1 | 57 to 59 °C |
| CCOCCOc1c(N)cccc1Cl | 65 to 67 °C |
| CC(Br)C(=O)C12CC3CC(CC(C3)C1)C2 (configuration not stated) | 86 to 88 °C |
| CC(C)NC(=O)Nc1ccc(CN)cc1 | 133 to 135 °C |
| N#Cc1cccnc1-n1cncn1 | 201 to 203 °C |
| CCOC(=O)c1sc(-c2ccc(F)c(F)c2)nc1C | 81 to 83 °C |
| CC(Cl)C(=O)NCCc1ccc2c(c1)OCCO2 (configuration not stated) | 106 to 108 °C |
| CCCCNc1ccc(S(=O)(=O)N2CCCC2)cc1N | 208 to 210 °C |
| Cc1ccsc1C(=O)Nc1ccc2c(c1)CCCN2 | 135 to 137 °C |
| O=C(O)C1CC(=O)N(c2ccc(Br)cc2)C1 (configuration not stated) | 173 to 175 °C |
| O=C(O)C1C2C3CCC(C3)C12 (configuration not stated) | 96 to 98 °C |
| CNS(=O)(=O)c1ccc2c(c1)NCC2 | 86 to 88 °C |
| COc1ccc(C)cc1-n1cc(C(=O)O)ccc1=O | 244 to 246 °C |
| Cc1ccc(CNC(=O)c2ccccc2N)cc1 | 140 to 142 °C |
| Clc1ncnc2ccc(I)cc12 | 173 to 175 °C |
| O=C(O)CNS(=O)(=O)c1ccc(F)cc1 | 146 to 148 °C |
| Cc1ccc(SC2(C(=O)O)CCCC2)cc1 | 80 to 82 °C |
| Cc1c(C(=O)O)oc2ccc(Br)cc12 | 249 to 251 °C |

| Compound | melting point |
| --- | --- |
| O=C(O)c1cc(NCc2ccccc2)ccn1 | 274 to 276 °C |
| NC(=NO)c1cnccn1 | 182 to 184 °C |
| CCn1cc(S(=O)(=O)Cl)c([N+](=O)[O-])n1 | 45 to 47 °C |
| NC(=O)NC(CCC(=O)O)C(=O)O (configuration not stated) | 161 to 163 °C |
| Nc1ccc(Cl)c(S(N)(=O)=O)c1 | 161 to 163 °C |
| COc1ccc(C(=O)Cc2ccc(F)cc2)cc1 | 106 to 108 °C |
| Nc1nc(-c2cccc(Cl)c2)cs1 | 125 to 127 °C |
| CC1CN(C(=O)OC(C)(C)C)CC(C)N1 (configuration not stated) | 64 to 66 °C |
| Fc1ccc(-c2cc[nH]n2)cc1 | 96 to 98 °C |
| COc1ccc(C(=O)Nc2ncc(C)s2)cc1N | 225 to 227 °C |
| O=C(O)C1CS(=O)(=O)c2ccccc2O1 (configuration not stated) | 239 to 241 °C |
| COc1ccc(CCNC(N)=S)cc1 | 166 to 168 °C |
| Cc1csc(Sc2ccc(C(=O)O)cc2[N+](=O)[O-])n1 | 207 to 210 °C |
| O=C(O)c1ccc(F)c(COCC2CC2)c1 | 69 to 71 °C |
| O=C1CCCC(=O)N1c1ncc(Br)s1 | 139 to 141 °C |
| CS(=O)(=O)N1CCC(NC(=O)N2CCC(C(=O)O)CC2)CC1 | 197 to 199 °C |
| Cc1cc(Cl)c([N+](=O)[O-])cc1N | 118 to 120 °C |
| O=Cc1ccc(OCc2ccncc2)cc1 | 112 to 114 °C |
| COc1cc(C)nc(C=O)c1 | 57 to 59 °C |
| FC(F)(F)c1ccc(CNc2ccc(Br)cc2)cc1 | 70 to 72 °C |
| Cc1nc(CC(C)C)c(C(=O)O)s1 | 116 to 118 °C |
| O=C(O)Cn1[nH]c(=O)ccc1=O | 235 to 237 °C |
| O=C1NCCNC1(O)C(F)(F)F (configuration not stated) | 144 to 146 °C |
| [N-]=[N+]=NCC(=O)NCc1ccccc1 | 39 to 41 °C |
